From patent publication US20220062299A1, “USE OF GLUCOCORTICOID STEROIDS IN PREVENTING AND TREATING CONDITIONS OF MUSCLE WASTING, AGING AND METABOLIC DISORDER” (NORTHWESTERN UNIVERSITY, priority 2018, published 2022)

Test system: Wildtype (WT) mice fed high-fat chow
Test: Diet-induced obesity, wildtype mice on high-fat chow, 12 weeks
Assay type: in vivo, mouse
Procedure: (G) At the end of treatment, quadriceps muscles were isolated and exposed ex vivo to either 10 mM glucose or 1 mM palmitate-BSA in the presence of 1×/min electrical stimulation. […] Curves depict interquartile range and single values; histograms depict single values and mean±s.e.m.; n=10 mice/group in A-E; n=3 mice/group in F-H. *, P<0.05 vs same-diet vehicle control, 1-way ANOVA with Tukey's multi-comparison; #, P<0.05 vs vehicle, 2-way ANOVA test.
Metabolic cages. VO2 (ml/h/kg) and energy expenditure to body weight (kcal/h/kg) were assessed via indirect calorimetry using the TSE Automated Phenotyping System PhenoMaster (TSE system, Chesterfield, Mo.). Mice were singly housed in their home cages in an enclosed environmental chamber (part of the TSE system) with controlled temperature and light/dark cycles (12 hours each; 6 AM-6 PM). […] Measurements of CO2 production and O2 consumption occurred using the attached gas analyzer to assess energy expenditure. In addition, physical activity in three dimensions was monitored via infrared beam breaks through frames mounted on the perimeter of the metabolic cages. Enrichment items were omitted to avoid insulation from sensors and infrared light beam path obstruction. Results are expressed as 12 hour-period values (light/dark; 10 values per mouse). Metabolic cage assays were conducted blinded to treatment groups.
2-NBDG uptake assay and glycemia/lactate monitoring. 2-NBDG uptake assay in live myofibers was conducted adapting previously reported conditions (Zou et al., 2005). FDB muscles were collected and carefully treated with collagenase type II and hand pipetting to liberate single myofibers, following reported procedures (Demonbreun and McNally, 2015). Myofibers from two FDB muscles were collected in 1 ml Ringer's solution (for 1 l, 7.2 g NaCl, 0.17 g CaCl2, 0.37 g KCl; pH, 7.4). 200 μl of myofiber suspension were dispensed per well of chambered coverglass (#155382; Thermo Fisher, Waltham, Mass.) and imaged as baseline condition for both transmitted light (1 ms integration) and green fluorescent channels (100 ms integration) at the Zeiss Axio Observer A1 microscope, using 20× short-range objective and the ZEN 2 software (version 2011; Zeiss, Jena, Germany). Immediately after baseline imaging, myofibers were supplemented with 2 mM glucose (#D8375-1 g; Millipore Sigma, St Louis, Mo.) and 50 μM 2-NBDG (#11046; Cayman Chemical, Ann Arbor, Mich.). For insulin-dependent uptake, insulin (#12585014; Thermo Fisher, Waltham, Mass.) was added to a final […] concentration. To control Glut1-/Glut4-dependent uptake, negative control wells were further supplemented with 10 μM cytochalasin B (#C6762; Millipore Sigma, St Louis, Mo.). Myofibers were incubated for 30 minutes in a 37° C./10% CO2 incubator, then washed twice in Ringer's solution and immediately imaged in fresh Ringers' solution, using the same integration and objective settings used for pre-incubation pictures. 2-NBDG uptake was quantitated as relative fluorescent units, calculated as intra-myofiber fluorescence after incubation subtracted of average baseline fluorescence. Fluorescence intensity was quantitated through serial analysis of acquired images (3 areas of approximately 85 μm^2 were analyzed for average fluorescence value per myofiber; >10 myofibers were analyzed per mouse) with ImageJ software (Schneider et al., 2012). All glucose uptake assays were conducted blinded to treatment groups.
Glucose was measured in blood (first drop from tail venipuncture) or serum (5 μl of 1:2 dilution) with an AimStrip Plus glucometer system (Germaine Laboratories, San Antonio, Tex.) and expressed as mg/dl values. Lactate was measured in blood (second drop from tail venipuncture) or serum (5 μl of 1:2 dilution) with a Lactate Plus reader (Nova Biomedical, Waltham, Mass.) and expressed as mM values. Fasting glycemia was measured in mice after 4 hours fasting (7 AM-11 AM). […]

[1] = WT mice on high-fat chow, weekly prednisone, 12 weeks

C[C@]12C=CC(=O)C=C1CC[C@@H]1[C@@H]2C(=O)C[C@@]2(C)[C@H]1CC[C@]2(O)C(=O)CO [prednisone, Prednisone]
ATP and phosphocreatine production of quadriceps ex vivo (10 mM glucose or 1 mM palmitate-BSA, normal and high-fat diet, weekly prednisone 12 weeks): higher levels | gain of body weight (WT mice on high-fat chow, once weekly prednisone 1 mg/kg i.p., 12 weeks, vs vehicle): reduced | accrual of whole-body fat mass and adipocyte mass in the ventral fat pad [1]: reduced | endpoint grip strength and running endurance [1]: significant improvement | gain of hyperglycemia (fasting blood glucose over time) [1]: reduced | retention of lean mass, myofiber mass and specific force [1]: improving | ex vivo uptake of 2-NBDG in freshly isolated myofibers (WT mice on high-fat chow, weekly prednisone, 12 weeks, absence and presence of insulin): improved | body-wide glucose homeostasis (glucose and insulin tolerance tests) (WT mice on high-fat chow, weekly prednisone, 12 weeks, endpoint): improved | oxidative capacity and energy expenditure in the active phase (metabolic cage) (normal or high-fat diet chow, weekly prednisone, 12 weeks): increased
